Results taken from publication PMC8533403, “Nostocyclopeptides as New Inhibitors of 20S Proteasome” (Biomolecules, 2021).
Each block holds one molecule with its values, some of them ahead of it. Where a SMILES comes first, the peptide text is derived from it. [ ]: non-standard residue; d: D form. The star is where a group is joined. ξ: configuration not given here. ξPro(4ξ-Me) = CC1CNC(C(=O)O)C1; Cbz = O=C(OCc1ccccc1)*

Tests used:
[1] = biological target: T1, human 20S proteasome (h20S), trypsin-like (T-L) activity (Homo sapiens, UniProt Q99436); assay: Human 20S inhibition assay, trypsin-like activity (Boc-LRR-AMC); type: biochemical; conditions: tested 5 to 50 µM; Boc-LRR-AMC 100 µM; pH 8.0, 37 °C; no replications; Figure 2B
T1 construct: Human 20S proteasome (h20S) isolated from erythrocytes was used; from tissue; host or cells: human erythrocytes
Protocol: (§1) The 20S proteasome inhibition assay was performed following the procedure of Czerwonka et al.. Human 20S proteasome (h20S) isolated from erythrocytes was used. Latent h20S was activated with 0.01% SDS (sodium dodecyl sulfate). The final concentration of the proteasome was 1 µg mL^−1 (1.4 nM). The fluorogenic substrates, Suc-LLVY-AMC, Boc-LRR-AMC, and Z-LLE-AMC, were used as probes in the chymotrypsin-like, trypsin, and caspase-like activity assays, respectively, at a final concentration of 100 µM. Stock solutions of Ncps (10 mM) were prepared in dimethyl sulfoxide (DMSO) and were tested in the concentration range of 5 to 50 μM. The content of DMSO never exceeded 3% of the final reaction volume. The assays were performed in a 96-well plate in 50 mM TrisHCl, pH 8.0, at 37 °C. The percentage of the substrate hydrolysis was measured by the amount of the released AMC (aminomethyl coumarin) using Tecan Infinite M200 Pro (λ = 380–460 nm) spectrofluorimeter (Tecan Trading AG, Männedorf, Switzerland). The fluorescence measurements were performed at 2-min intervals for 60 min. The activity of h20S in the presence of isolated Ncps was calculated in relation to the control (DMSO). The known proteasome inhibitor PR11 [28] was used to ensure the correctness of the assay. The peptide at the final concentration of 0.2 µM decreases the relative CT-L activity of the h20S to 6% of the control.

[2] = biological target: T2, human 20S proteasome (h20S), chymotrypsin-like (CT-L) activity (Homo sapiens, UniProt P28074); assay: Human 20S inhibition assay, chymotrypsin-like activity (Suc-LLVY-AMC); type: biochemical; conditions: Suc-LLVY-AMC 100 µM, pH 8.0, 37 °C
T2 construct: Human 20S proteasome (h20S) isolated from erythrocytes was used; from tissue; host or cells: human erythrocytes
Protocol: as §1

[3] = biological target: T3, human 20S proteasome (h20S), caspase-like (C-L) activity (Homo sapiens, UniProt P28072); assay: Human 20S inhibition assay, caspase-like activity (Z-LLE-AMC); type: biochemical; conditions: tested 5 to 50 µM; Z-LLE-AMC 100 µM; pH 8.0, 37 °C; no replications; Figure 2C
T3 construct: Human 20S proteasome (h20S) isolated from erythrocytes was used; from tissue; host or cells: human erythrocytes
Protocol: as §1

proteasome = test system: proteasome; set-up: method as in PMID 18801655; conditions: read-out: IC50, proteasome inhibition; cited from earlier work
Protocol: In the current work, to unequivocally state which of the cyanobacterial metabolites are responsible for this activity, the six isolated Ncps were assayed.

proteasome CT-L activity [4] = conditions: cited from earlier work
Text: (§2) The 26S proteasome is a large (2.4 MDa), multifunctional and ATP-dependent enzymatic complex with chymotrypsin-like (CT-L), trypsin-like (T-L), and caspase-like (C-L) activities. In eukaryotic organisms, it recognizes and degrades proteins with covalently attached ubiquitin (8.5 kDa protein). The 26S proteasome is composed of a 20S barrel-shaped core particle (700 kDa) responsible for proteolytic activity and one or two 19S (890 kDa) regulatory subunits with ubiquitin-binding sites. The 20S proteasome also occurs as a free complex that degrades protein ...

20S complex (proteasome) = conditions: read-out: IC50, catalytic activity of proteasome; cited from earlier work
Protocol: (§3) Nostodione A from Scytonema hofmannii, which inhibits CT-L activity (IC50 50 μM), contains indole moiety fused with diketone system.

[5] = test system: Saccharomyces cerevisiae 20S proteasome CT-L activity; conditions: cited from earlier work
Protocol: as §3

[6] = test system: 20S proteasome T-L activity; conditions: cited from earlier work
Text: as §2

[7] = test system: 20S proteasome C-L activity; conditions: cited from earlier work
Text: as §2

[8] = test system: 20S proteasome CT-L activity; conditions: cited from earlier work
Text: as §2

proteasome CT-L activity [9] = conditions: cited from earlier work; remark: listed apart in the source
Protocol: as §3

- effect on T-L activity of the human 20S proteasome [1]: did not modify
- effect on CT-L activity of the human 20S proteasome at 50 µM ([2]; applied at 50 µM, triplicate, Figure 2A): inhibited
- effect on C-L activity of the human 20S proteasome [3]: did not modify
Molecule: CC[C@H](C)[C@H](NC(=O)[C@@H](CCC(N)=O)NC(=O)CNC(=O)[C@@H](N)Cc1ccc(O)cc1)C(=O)N[C@@H](CO)C(=O)N1CCC[C@H]1C(=O)N[C@H](C=O)CC(C)C [Ncp-E2-L] (H-YG[dQ]ISPL-aldehyde; N-terminus assumed)

Molecule: CC(C)C[C@@H](C=O)NC(=O)[C@H](CC(C)C)NC(=O)[C@H](CC(C)C)NC(=O)OCc1ccccc1 [MG-132] (Cbz-Leu-Leu-Leu-aldehyde)
- IC50 (proteasome): 0.11 µM

Molecule: CCC(C)C(NC(=O)C(CCC(N)=O)NC(=O)CNC(=O)C(N)Cc1ccc(O)cc1)C(=O)NC(CO)C(=O)N1CC(C)CC1C(=O)NC(C=O)Cc1ccccc1 (stereo not drawn) [Ncp-A2-L, Tyr-Gly-Gln-Ile-Ser-MePro-Phe-H] (H-YGQIS[ξPro(4ξ-Me)]F-aldehyde; configuration not given here)
- IC50 ([2]; h20S 1.4 nM, approximate (ca.)): ~50 µM

Molecule: Tyropeptin A
- effect on CT-L activity (proteasome CT-L activity [4]): inhibits mainly CT-L activity

Molecule: scytonemide A
- IC50 (20S complex (proteasome)): 0.096 µM

Molecule: CCCCCC(=O)N[C@H](C(=O)N[C@@H](CCS(C)(=O)=O)C(=O)N[C@@H](CC(C)C)C(=O)[C@@]1(C)CO1)C(C)C [carmaphycin B]
- inhibition of CT-L activity of the Saccharomyces cerevisiae 20S proteasome [5]: low nanomolar concentrations

Molecule: CCCCCCCCC[C@@H](O)CC(=O)N[C@@H](CC(N)=O)C(=O)N[C@@H](CCC(N)=O)C(=O)N[C@H](C=O)CC(C)C [fellutamide B]
- IC50 [6]: 2 µM
- IC50 [7]: 1.2 µM
- IC50 [8]: 0.0094 µM

Molecule: CCCCCC(=O)N[C@H](C(=O)N[C@@H](CC[S+](C)[O-])C(=O)N[C@@H](CC(C)C)C(=O)[C@@]1(C)CO1)C(C)C (some centres unmarked) [carmaphycin A]
- inhibition of CT-L activity of the Saccharomyces cerevisiae 20S proteasome [5]: low nanomolar concentrations

Molecule: O=C1C(=O)c2c([nH]c3ccccc23)/C1=C\c1ccc(O)cc1 [Nostodione A]
- IC50 (proteasome CT-L activity [9]): 50 µM

Molecule: CC(=O)N[C@@H](CC(C)C)C(=O)N[C@@H](CC(C)C)C(=O)N[C@H](C=O)CCCNC(=N)N [Leupeptin]
- effect on T-L activity of the 20S proteasome [6]: inhibits T-L activity
